In the supplement of paper PMC11451515:

System: SEM cells
Experiment: cell viability relative to DMSO control; higher = less cytotoxic
Details: 48 h
Summary of the method: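 In 1536-well plates, 5 μl of leukemia cells were seeded per well: 500 cells/well for NOMO1 or SEM and 1000 cells/well for P12-Ichikawa. Each line had first been adapted for at least four passages in each medium. Library compounds in DMSO were pin-dosed at 11 threefold concentrations between 47 μM and 0.79 nM, and CellTiter-Glo One luminescence was read after 48 h at 37°C. Viability is a per-plate percentage relative to DMSO wells, with cell-free wells as background.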

Clc1ccccc1C(c1ccccc1)(c1ccccc1)n1cccn1
cell viability [%]
Details | HPLM + 10% dialyzed FBS | RPMI 5 mM glucose + 10% dialyzed FBS
0.000781 µM | 104 | 124
0.00234 µM | 121 | 129
0.00702 µM | 119 | 124
0.0211 µM | 123 | 130
0.0632 µM | 113 | 138
0.19 µM | 130 | 121
0.569 µM | 118 | 124
1.71 µM | 124 | 122
5.12 µM | 126 | 137
15.4 µM | 107 | 122
46.1 µM | 121 | 144
